≈ marks a conversion by molar mass, not a printed value. Read-outs that look alike come from different tables or passages of the source. Values belong to the compound of their own block, whether it stands above or below them.
What was measured:
[1] = Dynamic vapor sorption (DVS) moisture sorption/desorption; assay type: physicochemical; conditions: for XRPD pattern after DVS testing: after DVS full cycle
Experimental: Moisture sorption/desorption data was collected on a DVS Intrinsic (SMS, UK). The sample was placed into a tared sample chamber and automatically weighed. The sample was dried at 40° C. until the dm/dt was less than 0.002% and cooled to 25° C. The instrument parameters were set as detailed below. Step time (min): 60 min; Sample temperature: 25° C.; Cycle: Full cycle; Adsorption: 0, 10, 20, 30, 40, 50, 60, 70, 80, 90; Desorption: 80, 70, 60, 50, 40, 30, 20, 10, 0; Save Data Rate: 5 s; Total flow rate: 200 sccm; Post experiment total flow: 200 sccm.

[2] = Estimated solubility test: medium added stepwise at rt until the solid dissolved; assay type: physicochemical; conditions: for solubility: thermodynamic from solid
Experimental: As all of the samples dissolved after about 2 hours, estimated solubility testing was conducted, wherein about 5 mg of Compound 1 Form A, Compound 2 Form A and Compound 9 Form A were weighed into four separate vials each and each media was added stepwise while stirring at rt until the solid dissolved.

β2 adrenergic receptor = β2 adrenergic receptor (Homo sapiens, UniProt P07550); experiment: Agonism of the β2 adrenergic receptor (statement, no method given)
Sequence of β2 adrenergic receptor (P07550 whole entry): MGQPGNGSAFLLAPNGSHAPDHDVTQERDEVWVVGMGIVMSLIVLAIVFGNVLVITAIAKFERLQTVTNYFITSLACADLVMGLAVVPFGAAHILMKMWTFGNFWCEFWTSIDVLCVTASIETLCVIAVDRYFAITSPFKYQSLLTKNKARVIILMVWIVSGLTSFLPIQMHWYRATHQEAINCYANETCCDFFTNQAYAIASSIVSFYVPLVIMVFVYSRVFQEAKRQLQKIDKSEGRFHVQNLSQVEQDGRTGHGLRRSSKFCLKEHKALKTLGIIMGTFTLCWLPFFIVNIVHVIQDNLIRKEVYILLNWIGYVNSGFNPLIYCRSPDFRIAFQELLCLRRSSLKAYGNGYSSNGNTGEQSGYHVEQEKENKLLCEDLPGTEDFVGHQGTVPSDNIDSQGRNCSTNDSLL

[3] = Solid stability at 60° C. and 40° C./75%RH for 7 days (purity by HPLC, solid form); assay type: physicochemical; conditions: for Purity @ 0 d (Area%): start of solid stability test; for Purity @ 0 d (Area%) / Purity @ 7 d (Area%) 40° C./75%RH / Purity @ 7 d (Area%) 60° C.: HPLC; for Solid form @ 7 d 40° C./75%RH / Purity @ 7 d (Area%) 40° C./75%RH: 7 d at 40° C./75%RH; for Solid form @ 7 d 60° C. / Purity @ 7 d (Area%) 60° C.: 7 d at 60° C.
Experimental: (§1) HPLC analysis was performed with an Agilent HPLC 1260 series instrument.
Solid stability of Compound 1 Form A, Compound 2 Form A and Compound 9 Form A were evaluated at 60° C. and 40° C./75%RH for 7 days. Purity was determined via HPLC. […] All tested compounds retained the same solid form after the 7-day experiment.

[4] = Blood-brain barrier crossing and accumulation in cerebral spinal fluid (statement, no method given)
[5] = Solubility testing in biorelevant media (SGF, FaSSIF, FeSSIF) and water, shaken at 37° C. for up to 24 hours; assay type: physicochemical; conditions: for Solubility (mg/mL) 0.5 h / solubility / solubility at 0.5 h: 37° C.; for solubility / solubility at 0.5 h: 37 °C, thermodynamic from solid; for time until dissolved in each medium: shaking at 37° C., about 15 mg in 3 mL of each of the 4 media; for solubility at 0.5 h: read-out: Solubility (mg/mL) 0.5 h
Experimental: as §1
Compound 1 Form A, Compound 2 Form A and Compound 9 Form A were tested for stability in three biorelevant media and water at 37° C. for 0.5, 2 and 24 hours. About 15 mg of Compound 1 Form A, Compound 2 Form A and Compound 9 Form A were weighted into four separate vials each and to each set of vials was added 3 mL of one of the following biorelevant media: simulated gastric […] fluid (SGF), fasted state simulated intestinal fluid (FaSSIF), fed state simulated intestinal fluid (FeSSIF), and water. All samples were shaken at 200 rpm at 37° C. for up to 24 hours. […] Compound 9 Form A dissolved in each medium after about 15 minutes of shaking at 37° C. Compound 1 Form A dissolved in each medium over the course of about 2 hours of shaking at 37° C. […] The results of the solubility test are summarized below in Table 18: […]

[6] = SGF, FaSSIF, FeSSIF and water, SGF, FaSSIF, FeSSIF and water, about 15 mg in 3 mL, read-out: solubility in each medium
[7] = FaSSIF, fassif, FaSSIF, shaken 200 rpm, 2 and 24 h, read-out: Solubility (mg/mL) 2 and 24 h
[8] = FaSSIF, fassif, FaSSIF, shaken 200 rpm
[9] = FeSSIF, fessif, FeSSIF, shaken 200 rpm, 2 and 24 h, read-out: Solubility (mg/mL) 2 and 24 h
[10] = FeSSIF, fessif, FeSSIF, shaken 200 rpm
[11] = SGF, simulated gastric fluid, SGF, shaken 200 rpm, 2 and 24 h, read-out: Solubility (mg/mL) 2 and 24 h
[12] = SGF, simulated gastric fluid, SGF, shaken 200 rpm
[13] = water, water, Water, shaken 200 rpm, 2 and 24 h, read-out: Solubility (mg/mL) 2 and 24 h
[14] = water, water, Water, shaken 200 rpm

- water uptake at 80%RH ([1]; DVS, 25° C.): 1.25%
- water uptake at 90%RH ([1]; DVS, 25° C., 90%RH): 2.77%
- XRPD pattern after DVS testing [1]: remained unchanged
SMILES: CC(C)(C)NC[C@H](O)c1cccc(C#N)n1.Cc1ccc(S(=O)(=O)O)cc1 [Compound 5]

- Solubility (mg/mL) FaSSIF ([2]; FaSSIF, listed as Compound 1 Form A): ~6.3 mg/mL (≈ 28.7 mM)
- Solubility (mg/mL) FeSSIF ([2]; FeSSIF, listed as Compound 1 Form A): ~9.1 mg/mL (≈ 41.5 mM)
- Solubility (mg/mL) SGF ([2]; SGF, listed as Compound 1 Form A): ~12.7 mg/mL (≈ 57.9 mM)
- Solubility (mg/mL) Water ([2]; water, listed as Compound 1 Form A): ~5.0 mg/mL (≈ 22.8 mM)
- activity at the β2 adrenergic receptor (β2 adrenergic receptor): low concentration partial agonist
- Purity @ 0 d (Area%) ([3]; listed as Compound 1 Form A): 96.09% Area%
- decrease in purity ([3]; 7 d, under both sets of conditions (60° C. and 40° C./75%RH)): ~ 0.3%
- Solid form @ 7 d 40° C./75%RH [3]: unchanged
- Purity @ 7 d (Area%) 40° C./75%RH ([3]; listed as Compound 1 Form A): 95.78% Area%
- Solid form @ 7 d 60° C. [3]: unchanged
- Purity @ 7 d (Area%) 60° C. ([3]; listed as Compound 1 Form A): 95.76% Area%
- Solubility (mg/mL) 0.5 h ([5]; FaSSIF, shaken 200 rpm, listed as Compound 1 Form A): 4.33 mg/mL (≈ 19.7 mM)
- Solubility (mg/mL) 0.5 h ([5]; FeSSIF, shaken 200 rpm, listed as Compound 1 Form A): 4.41 mg/mL (≈ 20.1 mM)
- Solubility (mg/mL) 0.5 h ([5]; SGF, shaken 200 rpm, listed as Compound 1 Form A): 4.76 mg/mL (≈ 21.7 mM)
- solubility [5, 6]: > 5 mg/mL
- Solubility (mg/mL) 0.5 h ([5]; Water, shaken 200 rpm, listed as Compound 1 Form A): 4.19 mg/mL (≈ 19.1 mM)
- pH 24 h ([5]; pH of solubility sample in FaSSIF at 24 h (control 6.53), listed as Compound 1 Form A): 8.03
- pH 24 h ([5]; pH of solubility sample in FeSSIF at 24 h (control 5.01), listed as Compound 1 Form A): 5.52
- pH 24 h ([5]; pH of solubility sample in SGF at 24 h (control 1.19), listed as Compound 1 Form A): 1.20
- pH 24 h ([5]; pH of solubility sample in water at 24 h (control 5.26), listed as Compound 1 Form A): 10.35
- time until dissolved in each medium ([5]; listed as Compound 1 Form A): about 2 hours
SMILES: CC(C)(C)NC[C@H](O)c1cccc(C#N)n1 [Compound 1, (S)-6-(2-(tert-butylamino)-1-hydroxyethyl)picolinonitrile]
- ability to cross the blood-brain barrier and accumulate in the cerebral spinal fluid [4]: unexpectedly high ability to cross the blood-brain barrier

- Solubility (mg/mL) FaSSIF ([2]; FaSSIF, listed as Compound 9 Form A): >71.4 mg/mL
- Solubility (mg/mL) FeSSIF ([2]; FeSSIF, listed as Compound 9 Form A): >101.4 mg/mL
- Solubility (mg/mL) SGF ([2]; SGF, listed as Compound 9 Form A): >71.4 mg/mL
- Solubility (mg/mL) Water ([2]; water, listed as Compound 9 Form A): >71.3 mg/mL
- Purity @ 0 d (Area%) ([3]; listed as Compound 9 Form A): 98.62% Area%
- Purity @ 7 d (Area%) 40° C./75%RH ([3]; listed as Compound 9 Form A): 98.49% Area%
- Purity @ 7 d (Area%) 60° C. ([3]; listed as Compound 9 Form A): 98.62% Area%
- solubility [5, 7]: > 5 mg/mL
- solubility at 0.5 h [5, 8]: > 5 mg/mL
- solubility [5, 9]: > 5 mg/mL
- solubility at 0.5 h [5, 10]: > 5 mg/mL
- solubility [5, 11]: > 5 mg/mL
- solubility at 0.5 h [5, 12]: > 5 mg/mL
- pH 24 h ([5]; pH of solubility sample in FaSSIF at 24 h (control 6.53), listed as Compound 9 Form A): 6.51
- pH 24 h ([5]; pH of solubility sample in FeSSIF at 24 h (control 5.01), listed as Compound 9 Form A): 5.01
- pH 24 h ([5]; pH of solubility sample in SGF at 24 h (control 1.19), listed as Compound 9 Form A): 1.18
- pH 24 h ([5]; pH of solubility sample in water at 24 h (control 5.26), listed as Compound 9 Form A): 5.68
- time until dissolved in each medium ([5]; listed as Compound 9 Form A): About 15 minutes
- solubility [5, 13]: > 5 mg/mL
- solubility at 0.5 h [5, 14]: > 5 mg/mL
- water uptake at 80%RH ([1]; DVS, 25° C.): 1.05%
- XRPD pattern after DVS testing [1]: remained unchanged
SMILES: CC(C)(C)NC[C@H](O)c1cccc(C#N)n1 [Compound 9]

- solubility ([2]; FaSSIF, FaSSIF, read-out: Solubility (mg/mL) FaSSIF): > 100 mg/mL
- solubility ([2]; FeSSIF, FeSSIF, read-out: Solubility (mg/mL) FeSSIF): > 100 mg/mL
- solubility ([2]; SGF, simulated gastric fluid, SGF, read-out: Solubility (mg/mL) SGF): > 101 mg/mL
- solubility ([2]; water, water, read-out: Solubility (mg/mL) Water): > 102 mg/mL
- Purity @ 0 d (Area%) [3]: 99.27% Area%
- Solid form @ 7 d 40° C./75%RH [3]: unchanged
- Purity @ 7 d (Area%) 40° C./75%RH [3]: 99.27% Area%
- Solid form @ 7 d 60° C. [3]: unchanged
- Purity @ 7 d (Area%) 60° C. [3]: 99.25% Area%
- solubility [5, 7]: > 5 mg/mL
- solubility at 0.5 h [5, 8]: > 5 mg/mL
- solubility [5, 9]: > 5 mg/mL
- solubility at 0.5 h [5, 10]: > 5 mg/mL
- solubility [5, 11]: > 5 mg/mL
- solubility at 0.5 h [5, 12]: > 5 mg/mL
- solubility [5, 6]: > 5 mg/mL
- dissolution in each of the 4 media ([5]; at rt, about 15 mg in 3 mL): dissolved immediately
- pH 24 h ([5]; pH of solubility sample in FaSSIF at 24 h (control 6.53)): 6.47
- pH 24 h ([5]; pH of solubility sample in FeSSIF at 24 h (control 5.01)): 5.01
- pH 24 h ([5]; pH of solubility sample in SGF at 24 h (control 1.19)): 1.11
- pH 24 h ([5]; pH of solubility sample in water at 24 h (control 5.26)): 5.24
- solubility [5, 13]: > 5 mg/mL
- solubility at 0.5 h [5, 14]: > 5 mg/mL
- water uptake at 80%RH ([1]; DVS, 25° C.): 0.58%
- XRPD pattern after DVS testing [1]: remained unchanged
SMILES: CC(C)(C)NC[C@H](O)c1cccc(C#N)n1.Cl [Compound 2]

Reference: US20230219892A1, “FORMS AND COMPOSITIONS OF A BETA ADRENERGIC AGONIST” (Curasen Therapeutics, Inc., priority 2020, published 2023)
